Results published in US9321764B2, “Dihydro-pyrrolopyridinone inhibitors” (AbbVie Inc., priority 2013, dated 2016).
Marks after values point to notes of the source that are not given here.

Assays:
[1] = tested on: OPM-2 xenograft tumors; test: Xenograft tumor growth inhibition assay (OPM-2); type: in vivo, mice; details: QDx21; for % TGI: OPM-2 xenograft, SCID-beige mice; for % removed from study: removed due to morbidity or weight loss in excess of 20%
Protocol: The effect of compounds of the examples to inhibit the growth of OPM-2 xenograft tumors implanted in mice was evaluated. A suspension of cancer cells (5×10^6 per 0.1 mL) prepared in RPMI culture medium (Invitrogen, Carlsbad, Calif.) was diluted 1:1 with a solution of Matrigel™ (BD Biosciences, Franklin Lakes, N.J.) and inoculated subcutaneously into the right hind flank of female SCID-beige (Charles River Labs) mice. Randomization into treatment and vehicle control groups (10/group) occurred when the mean tumor volume reached approximately 250 mm^3 Compounds were formulated in 10% EtOH, 30% PEG 400, 60% Phosol 53 MCT. Administration of compound or vehicle was initiated on the day following randomization and continued for 21 days.

[2] = tested on: LPS induced IL-6 production; test: LPS (lipopolysaccharide) induced IL-6 production mouse assay; type: in vivo; details: read-out: Inhibition of LPS induced IL-6 production, % inhibition at 3 mg/kg, 3 mg/kg oral, one hour before LPS 2.5 mg/kg i.p., serum IL-6 2 hours after LPS, SCID female mice, all p < 0.05
Protocol: Compounds of the Examples listed in Table 2 were assayed for their ability to inhibit LPS (lipopolysaccharide) induced IL-6 (Interleukin-6) production in mice. Fox Chase SCID® female mice (Charles Rivers Labs, 5 per group) received an intraperitoneal challenge of lipopolysaccharide (2.5 mg/kg, L2630 E. coli 0111:B4) one hour after oral administration of compounds. Mice were euthanized 2 hours after lipopolysaccharide injection, blood was removed by cardiac puncture, and then the serum harvested from the blood samples was frozen at −80° C. On the day of the assay the serum samples were brought to room temperature and then diluted 1:20 in phosphate-buffered saline containing 2% bovine serum albumin. Interleukin-6 measurements were performed using a cytokine assay from Meso Scale Discovery (Gaithersburg, Md.) for mouse serum analysis according to the manufacturer's protocol and read on a SECTOR Imager 6000 (Meso Scale Discovery, Gaithersburg, Md.) instrument. Statistical analysis was performed using Prism software (version 5.0) incorporating Dunnett's one way ANOVA. The IL-6 mean and standard deviation of the group of vehicle treated animals were compared with the IL-6 mean and standard deviation of the group treated with drug. A p value <0.05 means that there is less than a 5% probability that the mean values in the two groups are equal.

[3] = biological target: T1, BRD4 (BDII_E352-M457) (Homo sapiens, UniProt O60885); test: TR-FRET bromodomain binding assay, second bromodomain of BRD4; details: His-tagged BD2, 30 nM Alexa647 probe; TR-FRET protocol A-E given per row
T1 construct: proliferation; Protocol; made in house
How it was run: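 His-tagged BRD4 BD2 ([…]) competed against an Alexa647-labelled BET-inhibitor probe in TR-FRET. Buffer was 20 mM sodium phosphate pH 6.0, 50 mM NaCl, 1 mM EDTA, 0.01% Triton X-100, 1 mM DTT, with method D DMSO series of 2.5 mM–800 nM (stock range). IC50 from 4-parameter fit, Ki from probe Kd and concentration.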

[4] = biological target: T2, BRD4 (BDI_K57-E168) (Homo sapiens, UniProt O60885); test: TR-FRET bromodomain binding assay, first bromodomain of BRD4; details: His-tagged BD1, 100 nM Alexa647 probe; TR-FRET protocol A-E given per row
T2 construct: BD1: amino acids K57-E168; made in house
How it was run: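 His-tagged BRD4 BD1 (K57-E168), 8 nM, with 1 nM Eu-anti-His antibody and 100 nM Alexa647-labelled BET-inhibitor probe in pH 6.0 phosphate buffer, 2% DMSO. TR-FRET read after 1 h at room temperature. IC50 from 4-parameter fit, converted to Ki using probe Kd and concentration.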

[5] = tested on: breast cancer cell line MX-1; test: MX-1 cell line proliferation assay; type: cell-based; details: Homo sapiens, MX1, 72 h, MX-1 cells, 3-day proliferation assay, Cell Titer Glo; read-out: Cellular proliferation EC50
How it was run: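 Cells seeded at 5000/well in RPMI 1640 with 10% FBS, allowed to adhere overnight at 37 °C, then exposed to compound at final 0.0001–3 μM for 3 days. Viability read by Cell Titer Glo luminescence, normalized to DMSO controls; EC50 from sigmoidal curve fit.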

Row | Ki [3] [µM] | Ki [4] [µM] | EC50 [5] [µM] | SMILES | % TGI ([1]; 1 mg/kg PO) [%] | % removed from study ([1]; 1 mg/kg PO) [%] | % TGI ([1]; 3 mg/kg PO) [%] | % removed from study ([1]; 3 mg/kg PO) [%] | inhibition in vivo at 3 mg/kg [2] [%] | % TGI ([1]; 10 mg/kg PO) | % removed from study ([1]; 10 mg/kg PO) [%] | % TGI ([1]; 30 mg/kg PO) | % removed from study ([1]; 30 mg/kg PO) [%]
1 | 0.0071 | 0.0046 |  | Cn1cc(-c2cc(CS(C)(=O)=O)ccc2Oc2ccc(F)cc2F)c2cc[nH]c(=O)c21 [Example 52, 3-{2-(2,4-difluorophenoxy)-5-[(methylsulfonyl)methyl]phenyl}-1-methyl-1,6-dihydro-7H-pyrrolo[2,3-c]pyridin-7-one] | 13 | 0 | 16 | 10 | 77 |  |  |  | 
2 | 0.038 | 0.034 | 0.107 | Cn1cc(-c2cc(S(C)(=O)=O)ccc2Oc2ccc(F)cc2F)c2cc[nH]c(=O)c21 [Example 17, 3-[2-(2,4-difluorophenoxy)-5-(methylsulfonyl)phenyl]-1-methyl-1,6-dihydro-7H-pyrrolo[2,3-c]pyridin-7-one] |  |  |  |  | 49 | 60*** % | 10 | 64*** % | 10
